Key:
[1] = system: colorectal adenocarcinoma (Caco-2) cell line; test: MTT cytotoxicity assay against Caco-2 cells; assay type: cell-based; settings: for cytotoxic activity in words: halogen in the N-phenyl substituent
Protocol: The colorectal adenocarcinoma Caco-2 cell line was generously provided by the Zydus Research Centre, Ahmedabad, Gujarat, India. These cells were maintained in DMEM (Hi-Media) containing 25 mM HEPES buffer, 1000 mg/L glucose, L-glutamine, sodium bicarbonate, and sodium pyruvate and supplemented with 20% heat-inactivated FBS (cell clone), 1% (v/v) minimal essential medium nonessential amino acids (Hi-Media), antibiotic, and antimycotic (penicillin, streptomycin, and amphotericin B; Hi-Media) in a humidified atmosphere of 5% CO2 at 37 °C. […] Caco-2 VB cells, which overexpress hPGP, were generated by growing Caco-2 cells in the presence of 1 μg/mL vinblastine. The drug was removed from the culture medium 2–3 days prior to using the Caco-2 VB cells in the biological assays.
Caco-2 cells were cultured in 96-well plates until they reached 70–80% confluency and then treated with the TRZ-DHPM derivatives (0.1–100 μM). Cytotoxicity was determined using an MTT (3-(4,5-dimethylthiazol-2-yl)-2,5-diphenyltetrazolium bromide) assay as described previously.[31]

[2] = target: T1, human P-glycoprotein (hPgp) (Homo sapiens, UniProt P08183); test: hPgp-mediated calcein-AM efflux assay in Caco-2 VB cells; assay type: cell-based; settings: for EC50: Caco-2 VB cells, calcein-AM, read-out: inhibition of calcein extrusion, EC50
T1 construct: Caco-2 VB cells, which overexpress hPGP, were generated by growing Caco-2 cells in the presence of 1 μg/mL vinblastine; endogenous in cells; host or cells: Caco-2 VB (vinblastine-resistant human colorectal adenocarcinoma Caco-2 cells)
Protocol: (§1) In this assay, hydrolysis of intracellular calcein-AM to calcein by endogenous cellular esterases causes the cell to become highly fluorescent (see Figure S1 in Supporting Information).
The colorectal adenocarcinoma Caco-2 cell line was generously provided by the Zydus Research Centre, Ahmedabad, Gujarat, India. […] Caco-2 VB cells, which overexpress hPGP, were generated by growing Caco-2 cells in the presence of 1 μg/mL vinblastine. The drug was removed from the culture medium 2–3 days prior to using the Caco-2 VB cells in the biological assays.
Each well contained 100 μL of cells in culture medium, 50 μL of a solution containing the TRZ-DPHM derivative, and 50 μL of calcein-AM (total volume, 200 μL). The final concentration of putative hPGP inhibitor in each assay ranged from 0.01 to 30 μg/mL. […] Caco-2 cells were used as a negative control (Figure S1). […] PBS was used for all dilutions. All experiments were performed in triplicate.
The effectiveness of inhibitors on Pgp efflux activity, i.e., calcein retention was calculated by the following equation [drawing 1] where FT is the fluorescence of treated cells and FU is the fluorescence of untreated cells.

hPgp = target: T2, hPgp (Homo sapiens, UniProt P08183); test: Fluorescence microscopy imaging of intracellular calcein in Caco-2 VB cells; assay type: cell-based; settings: for intracellular calcein retention by fluorescence microscopy: Caco-2-VB cells, 1 μM calcein-AM, 30 min, concentration = EC50
T2 construct: Caco-2 VB cells, which overexpress hPGP, were generated by growing Caco-2 cells in the presence of 1 μg/mL vinblastine; endogenous in cells; host or cells: Caco-2 VB (vinblastine-resistant human colorectal adenocarcinoma Caco-2 cells)
Source text: as §1
Full details are provided in the Supporting Information.

[3] = Homo sapiens, Caco-2 cell line (Table S3)
[4] = Homo sapiens, Caco-2 cell line, MTT assay (Table 1)

T1 sequence (P08183 whole entry): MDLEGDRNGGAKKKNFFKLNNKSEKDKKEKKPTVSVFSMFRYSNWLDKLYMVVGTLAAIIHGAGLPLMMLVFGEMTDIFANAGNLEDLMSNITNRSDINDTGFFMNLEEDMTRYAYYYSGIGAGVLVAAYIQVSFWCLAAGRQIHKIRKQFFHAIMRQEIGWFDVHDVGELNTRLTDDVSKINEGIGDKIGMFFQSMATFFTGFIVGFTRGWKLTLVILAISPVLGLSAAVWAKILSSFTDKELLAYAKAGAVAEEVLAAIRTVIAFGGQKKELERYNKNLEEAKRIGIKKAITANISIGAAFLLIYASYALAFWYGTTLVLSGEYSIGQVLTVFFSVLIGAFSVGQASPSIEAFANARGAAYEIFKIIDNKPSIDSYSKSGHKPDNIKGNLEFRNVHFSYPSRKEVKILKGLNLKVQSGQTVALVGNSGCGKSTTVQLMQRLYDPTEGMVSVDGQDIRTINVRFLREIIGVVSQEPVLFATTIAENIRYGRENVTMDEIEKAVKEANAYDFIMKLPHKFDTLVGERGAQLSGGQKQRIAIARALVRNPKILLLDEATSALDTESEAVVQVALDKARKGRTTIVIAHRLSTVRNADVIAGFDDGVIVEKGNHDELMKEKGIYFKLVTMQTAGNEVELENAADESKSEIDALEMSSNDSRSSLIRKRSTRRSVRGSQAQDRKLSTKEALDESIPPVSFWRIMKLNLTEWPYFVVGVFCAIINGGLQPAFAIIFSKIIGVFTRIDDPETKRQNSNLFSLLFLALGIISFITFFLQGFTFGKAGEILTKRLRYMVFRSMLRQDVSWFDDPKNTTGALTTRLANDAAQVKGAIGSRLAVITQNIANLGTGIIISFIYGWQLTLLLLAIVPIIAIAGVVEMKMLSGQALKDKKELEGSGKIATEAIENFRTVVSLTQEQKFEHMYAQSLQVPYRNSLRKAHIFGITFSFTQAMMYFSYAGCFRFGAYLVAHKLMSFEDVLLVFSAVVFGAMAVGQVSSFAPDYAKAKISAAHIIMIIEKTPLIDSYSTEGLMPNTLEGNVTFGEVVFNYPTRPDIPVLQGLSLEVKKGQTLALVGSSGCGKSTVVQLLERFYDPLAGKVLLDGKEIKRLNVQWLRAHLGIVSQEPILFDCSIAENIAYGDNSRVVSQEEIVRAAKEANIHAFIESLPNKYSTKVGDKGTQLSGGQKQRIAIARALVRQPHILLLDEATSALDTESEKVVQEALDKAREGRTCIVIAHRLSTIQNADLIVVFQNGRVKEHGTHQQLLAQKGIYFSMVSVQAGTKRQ
T2 sequence (P08183 whole entry): as above

SMILES	IC50 [1, 3] [µM]	IC50 [1, 4] [µM]	EC50 [2] [µM]	melting point [°C]	further results
CC(=O)C1=C(C)NC(=O)NC1c1ccccc1OCc1cn(-c2ccccc2)nn1 (stereo not shown) [6aa′, 5-Acetyl-6-methyl-4-(2-((1-phenyl-1H-1,2,3-triazol-4-yl)methoxy)phenyl)-3,4-dihydropyrimidin-2(1H)-one]	1 ± 0.3	1.1 ± 0.2	12.56 ± 0.08	145 to 147	
CC(=O)C1=C(C)NC(=O)NC1c1ccccc1OCc1cn(-c2ccccc2[N+](=O)[O-])nn1 (stereo not shown) [6ab′, 5-Acetyl-6-methyl-4-(2-((1-(2-nitrophenyl)-1H-1,2,3-triazol-4-yl)methoxy)phenyl)-3,4-dihydropyrimidin-2(1H)-one]		1.3 ± 0.8	15.42 ± 0.06	133 to 135	decrease in potency on replacing chlorine by nitro group ([2]; relative to 6ad′, calcein-AM assay): 5 fold
CC(=O)C1=C(C)NC(=O)NC1c1ccccc1OCc1cn(-c2ccc([N+](=O)[O-])cc2)nn1 (stereo not shown) [6ac′, 5-Acetyl-6-methyl-4-(2-((1-(4-nitrophenyl)-1H-1,2,3-triazol-4-yl)methoxy)phenyl)-3,4-dihydropyrimidin-2(1H)-one]	2 ± 0.53			148 to 150	
CC(=O)C1=C(C)NC(=O)NC1c1ccccc1OCc1cn(-c2cccc(Cl)c2)nn1 (stereo not shown) [6ad′, 5-Acetyl-4-(2-((1-(3-chlorophenyl)-1H-1,2,3-triazol-4-yl)methoxy)phenyl)-6-methyl-3,4-dihydropyrimi-din-2(1H)-one]		0.57 ± 0.03	3.14 ± 0.03	130 to 132	cytotoxic activity in words ([1]; Caco-2 cell line): sub-micromolar; intracellular calcein retention by fluorescence microscopy (hPgp): confirmed intracellular calcein retention; modulation of hPgp function compared with cyclosporin A or verapamil (statistical analysis) (hPgp; calcein retention, p < 0.0001): better modulator of hPgp function
CC(=O)C1=C(C)NC(=O)NC1c1ccccc1OCc1cn(-c2cccc(Br)c2)nn1 (stereo not shown) [6ae′]					IC50 ([1]; Caco-2 cell line (Table S3)): 2 ± 1.2 µM
CC(=O)C1=C(C)NC(=O)NC1c1ccccc1OCc1cn(-c2c(Cl)cc(Cl)cc2Cl)nn1 (stereo not shown) [6af′, 5-Acetyl-6-methyl-4-(2-((1-(2,4,6-trichlorophenyl)-1H-1,2,3-triazol-4-yl)methoxy)phenyl)-3,4-dihydro-pyrimidin-2(1H)-one]	3.7 ± 0.3			139 to 141	
CC(=O)C1=C(C)NC(=O)NC1c1ccc(OCc2cn(-c3ccccc3)nn2)cc1 (stereo not shown) [6ba′, 5-Acetyl-6-methyl-4-(4-((1-phenyl-1H-1,2,3-triazol-4-yl)methoxy)phenyl)-3,4-dihydropyrimidin-2(1H)-one]	2.2 ± 0.2			133 to 135	
CC(=O)C1=C(C)NC(=O)NC1c1ccc(OCc2cn(-c3ccccc3[N+](=O)[O-])nn2)cc1 (stereo not shown) [6bb′, 5-Acetyl-6-methyl-4-(4-((1-(2-nitrophenyl)-1H-1,2,3-triazol-4-yl)methoxy)phenyl)-3,4-dihydropyrimidin-2(1H)-one]	1.6 ± 0.1			157 to 159	
CC(=O)C1=C(C)NC(=O)NC1c1ccc(OCc2cn(-c3ccc([N+](=O)[O-])cc3)nn2)cc1 (stereo not shown) [6bc′, 5-Acetyl-6-methyl-4-(4-((1-(4-nitrophenyl)-1H-1,2,3-triazol-4-yl)methoxy)phenyl)-3,4-dihydropyrimidin-2(1H)-one]	2.44 ± 0.04			134 to 136	
CC(=O)C1=C(C)NC(=O)NC1c1ccc(OCc2cn(-c3cccc(Cl)c3)nn2)cc1 (stereo not shown) [6bd′, 5-Acetyl-4-(4-((1-(3-chlorophenyl)-1H-1,2,3-triazol-4-yl)methoxy)phenyl)-6-methyl-3,4-dihydropyrimidin-2(1H)-one]		0.76 ± 0.06	4.8 ± 0.2	142 to 144	cytotoxic activity in words ([1]; Caco-2 cell line): sub-micromolar
CC(=O)C1=C(C)NC(=O)NC1c1ccc(OCc2cn(-c3cccc(Br)c3)nn2)cc1 (stereo not shown) [6be′, 5-Acetyl-4-(4-((1-(3-bromophenyl)-1H-1,2,3-triazol-4-yl)methoxy)phenyl)-6-methyl-3,4-dihydropyrimidin-2(1H)-one]		0.8 ± 0.1	9.25 ± 0.02	138 to 140	cytotoxic activity in words ([1]; Caco-2 cell line): sub-micromolar
CC(=O)C1=C(C)NC(=O)NC1c1ccc(OCc2cn(-c3c(Cl)cc(Cl)cc3Cl)nn2)cc1 (stereo not shown) [6bf′, 5-Acetyl-6-methyl-4-(4-((1-(2,4,6-trichlorophenyl)-1H-1,2,3-triazol-4-yl)methoxy)phenyl)-3,4-dihydro-pyrimidin-2(1H)-one]	1.5 ± 0.07			135 to 137	
COc1ccc(-n2cc(COc3ccc(C4NC(=O)NC(C)=C4C(C)=O)cc3)nn2)c(OC)c1 (stereo not shown) [6bh′, 5-Acetyl-4-(4-((1-(2,4-dimethoxyphenyl)-1H-1,2,3-triazol-4-yl)methoxy)phenyl)-6-methyl-3,4-dihydro-pyrimidin-2(1H)-one]		0.6 ± 0.2	4.2 ± 0.2	140 to 142	
CC(=O)C1=C(C)NC(=O)NC1c1cc(Br)cc(Br)c1OCc1cn(-c2ccccc2)nn1 (stereo not shown) [6ca′, 5-Acetyl-4-(3,5-dibromo-2-((1-phenyl-1H-1,2,3-triazol-4-yl)methoxy)phenyl)-6-methyl-3,4-dihydropyrimidin-2(1H)-one]		0.9 ± 0.1	4 ± 0.2	157 to 159	intracellular calcein retention by fluorescence microscopy (hPgp): confirmed intracellular calcein retention
CC(=O)C1=C(C)NC(=O)NC1c1cc(Br)cc(Br)c1OCc1cn(-c2ccccc2[N+](=O)[O-])nn1 (stereo not shown) [6cb′, 5-Acetyl-4-(3,5-dibromo-2-((1-(2-nitrophenyl)-1H-1,2,3-triazol-4-yl)methoxy)phenyl)-6-methyl-3,4-dihydro-pyrimidin-2(1H)-one]		1.22 ± 0.08	3.4 ± 0.3	167 to 169	intracellular calcein retention by fluorescence microscopy (hPgp): confirmed intracellular calcein retention
CC(=O)C1=C(C)NC(=O)NC1c1cc(Br)cc(Br)c1OCc1cn(-c2ccc([N+](=O)[O-])cc2)nn1 (stereo not shown) [6cc′, 5-Acetyl-4-(3,5-dibromo-2-((1-(4-nitrophenyl)-1H-1,2,3-triazol-4-yl)methoxy)phenyl)-6-methyl-3,4-dihydro-pyrimidin-2(1H)-one]		1.25 ± 0.08	8.9 ± 0.1	165 to 167	
COc1cc(C2NC(=O)NC(C)=C2C(C)=O)ccc1OCc1cn(-c2ccccc2)nn1 (stereo not shown) [6da′, 5-Acetyl-4-(3-methoxy-4-((1-phenyl-1H-1,2,3-triazol-4-yl)methoxy)phenyl)-6-methyl-3,4-dihydropyrimidin-2(1H)-one]	2.56 ± 0.04			151 to 153	
COc1cc(C2NC(=O)NC(C)=C2C(C)=O)ccc1OCc1cn(-c2ccccc2[N+](=O)[O-])nn1 (stereo not shown) [6db′, 5-Acetyl-4-(3-methoxy-4-((1-(2-nitrophenyl)-1H-1,2,3-triazol-4-yl)methoxy)phenyl)-6-methyl-3,4-dihydropyri-midin-2(1H)-one]					IC50 ([1]; Caco-2 cell line (Table S3)): 2.29 ± 0.09 µM
COc1cc(C2NC(=O)NC(C)=C2C(C)=O)ccc1OCc1cn(-c2ccc([N+](=O)[O-])cc2)nn1 (stereo not shown) [6dc′, 5-Acetyl-4-(3-methoxy-4-((1-(4-nitrophenyl)-1H-1,2,3-triazol-4-yl)methoxy)phenyl)-6-methyl-3,4-dihydro-pyrimidin-2(1H)-one]	2.97 ± 0.03			159 to 161	
N.N.O=C([O-])C1(C(=O)[O-])CCC1.[Pt+2] [carboplatin, reference compound]					IC50 ([1]; Caco-2 cell line, MTT assay (Table 1)): 7 ± 2 µM
COc1cccc2c1C(=O)c1c(O)c3c(c(O)c1C2=O)C[C@@](O)(C(C)=O)C[C@@H]3O[C@H]1C[C@H](N)[C@H](O)[C@H](C)O1 [daunorubicin, reference compound]		14 ± 2			
Nc1ccn([C@@H]2O[C@H](CO)[C@@H](O)C2(F)F)c(=O)n1 [gemcitabine, reference compound]	4.5 ± 0.98	5 ± 1			
